± gives the standard deviation of the averaged measurements.
Tests used:
SUNITINIB = compound: CCN(CC)CCNC(=O)c1c(C)[nH]c(/C=C2\C(=O)Nc3ccc(F)cc32)c1C [SUNITINIB]; assay: surviving fraction relative to DMSO-only wells; higher = less growth inhibition; conditions: exposure time: 5 days
Procedure, shortened: (§1)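 In 384-well plates, 250–500 log-phase tumour cells per well were given 24 hours before five days of continuous exposure to inhibitors at 0.5, 1, 5, 10, 50, 100, 500 and 1000 nM. Surviving fraction is luminescence from CellTiter-Glo, normalised to the median of wells containing DMSO alone. Reading took place after 10 minutes at room temperature.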

[1] = compound: O=C(NOCC1CC1)c1ccc(F)c(F)c1Nc1ccc(I)cc1Cl; assay: as above; conditions: exposure time: 5 days
Procedure, shortened: as §1

Test System | surviving fraction (SUNITINIB; 0.5 nM) | surviving fraction (SUNITINIB; 1 nM) | surviving fraction (SUNITINIB; 5 nM) | surviving fraction (SUNITINIB; 10 nM) | surviving fraction (SUNITINIB; 50 nM) | surviving fraction (SUNITINIB; 100 nM) | surviving fraction (SUNITINIB; 500 nM) | surviving fraction (SUNITINIB; 1000 nM) | surviving fraction ([1]; 0.5 nM) | surviving fraction ([1]; 1 nM) | surviving fraction ([1]; 5 nM) | surviving fraction ([1]; 10 nM) | surviving fraction ([1]; 50 nM) | surviving fraction ([1]; 100 nM) | surviving fraction ([1]; 500 nM) | surviving fraction ([1]; 1000 nM)
SYO1 SYNOVIAL | 0.789 ± 0.035 | 0.609 ± 0.092 | 0.664 ± 0.03 | 0.313 ± 0.13 | 0.819 ± 0.013 | 0.768 ± 0.036 | 0.52 ± 0.014 | 0.0887 ± 0.054 | 0.469 ± 0.17 | 0.941 ± 0.093 | 0.833 ± 0.065 | 0.888 ± 0.034 | 0.542 ± 0.11 | 0.885 ± 0.023 | 0.784 ± 0.058 | 0.8681 ± 0.0032
BT20 BREAST | 0.794 ± 0.14 | 0.732 ± 0.05 | 0.757 ± 0.081 | 0.783 ± 0.14 | 1 ± 0.16 | 1.23 ± 0.23 | 1.31 ± 0.2 | 1.21 ± 0.16 | 0.994 ± 0.099 | 1.06 ± 0.055 | 1.03 ± 0.091 | 0.962 ± 0.13 | 0.905 ± 0.12 | 0.928 ± 0.055 | 0.864 ± 0.061 | 0.849 ± 0.069
SG27 HEADNECK |  | 0.949 ± 0.026 | 0.922 ± 0.072 | 0.744 ± 0.046 | 1.22 ± 0.077 | 1.25 ± 0.12 | 1.72 ± 0.17 | 0.81 ± 0.064 | 0.918 ± 0.036 | 1.02 ± 0.075 | 0.973 ± 0.11 | 0.986 ± 0.075 | 1.02 ± 0.22 | 0.988 ± 0.017 | 1.13 ± 0.12 | 1.24 ± 0.19
22RV1 PROSTATE | 0.975 ± 0.028 | 0.952 ± 0.021 |  |  | 0.937 ± 0.1 | 0.932 ± 0.027 | 0.739 ± 0.049 | 0.41 ± 0.029 | 0.93 ± 0.034 | 1.03 ± 0.044 | 0.917 ± 0.04 | 0.851 ± 0.038 | 0.714 ± 0.068 | 0.6767 ± 0.0032 | 0.631 ± 0.037 | 0.526 ± 0.019
JIMT1 BREAST | 0.826 ± 0.025 | 0.81 ± 0.07 | 0.841 ± 0.041 | 0.848 ± 0.069 | 1.05 ± 0.056 | 1.04 ± 0.075 | 0.776 ± 0.098 | 0.54 ± 0.063 | 0.957 ± 0.056 | 0.967 ± 0.039 | 0.997 ± 0.032 | 0.997 ± 0.02 | 0.955 ± 0.013 | 0.956 ± 0.017 | 0.8092 ± 0.0039 | 0.7653 ± 0.0068
SG28 HEADNECK | 0.913 ± 0.11 | 0.789 ± 0.051 | 0.807 ± 0.086 | 0.313 ± 0.042 | 0.893 ± 0.14 | 0.725 ± 0.044 | 0.4727 ± 0.0046 | 0.124 ± 0.017 | 0.871 ± 0.049 | 1.03 ± 0.061 | 0.836 ± 0.024 | 0.932 ± 0.099 | 0.801 ± 0.06 | 0.781 ± 0.065 | 0.633 ± 0.023 | 0.616 ± 0.017
MDAMB157 BREAST | 0.794 ± 0.024 | 0.802 ± 0.08 | 0.87 ± 0.07 | 0.869 ± 0.12 | 0.83 ± 0.032 | 0.74 ± 0.072 | 0.613 ± 0.064 | 0.404 ± 0.062 | 0.877 ± 0.043 | 0.86 ± 0.12 | 0.929 ± 0.1 | 0.928 ± 0.069 | 0.85 ± 0.02 | 0.866 ± 0.037 | 0.787 ± 0.035 | 0.664 ± 0.013
HMT3552 BREAST |  | 0.96 |  |  |  | 1.21 | 0.423 | 0.203 | 1.11 | 1.12 | 1.01 | 1.08 | 1.02 | 0.941 | 0.92 | 0.843
T47D BREAST | 0.93 ± 0.037 | 0.896 ± 0.059 | 0.911 ± 0.018 | 0.817 ± 0.034 | 1.11 ± 0.027 | 1.13 ± 0.038 | 1.13 ± 0.04 | 0.985 ± 0.077 | 0.8871 ± 0.0062 | 0.999 ± 0.027 | 0.943 ± 0.018 | 1.008 ± 0.0089 | 0.899 ± 0.011 | 1.06 ± 0.04 | 0.996 ± 0.075 | 0.977 ± 0.07
SCC47 HEADNECK | 0.886 ± 0.019 | 0.9 ± 0.059 |  |  | 1.02 ± 0.016 |  | 0.726 ± 0.022 | 0.502 ± 0.041 | 0.82 ± 0.063 | 0.844 ± 0.011 | 0.951 ± 0.013 | 0.973 ± 0.087 | 0.928 ± 0.089 | 0.907 ± 0.044 | 0.628 ± 0.058 | 0.658 ± 0.024
H23 LUNG | 0.953 ± 0.023 | 0.918 ± 0.013 |  | 0.885 ± 0.045 |  | 0.829 ± 0.014 | 0.598 ± 0.06 | 0.368 ± 0.021 | 0.922 ± 0.025 | 0.931 ± 0.027 | 0.834 ± 0.0027 | 0.741 ± 0.062 | 0.484 ± 0.029 | 0.413 ± 0.01 | 0.341 ± 0.0071 | 0.342 ± 0.0067
MDAMB231 BREAST | 0.955 ± 0.016 | 0.9679 ± 0.0028 | 0.979 ± 0.012 | 0.976 ± 0.033 | 1.09 ± 0.017 | 1.12 ± 0.017 | 1.04 ± 0.0064 | 0.848 ± 0.011 | 0.963 ± 0.011 | 0.994 ± 0.035 | 1 ± 0.024 | 1.02 ± 0.032 | 0.969 ± 0.024 | 0.912 ± 0.022 | 0.65 ± 0.039 | 0.52 ± 0.02
HU09 BONE | 0.865 ± 0.14 |  | 0.768 ± 0.076 | 0.637 ± 0.048 | 0.498 ± 0.051 | 0.485 ± 0.073 | 0.288 ± 0.035 | 0.161 ± 0.011 | 0.968 ± 0.024 | 1 ± 0.15 | 1.06 ± 0.073 | 1.06 ± 0.11 | 0.995 ± 0.1 | 1.03 ± 0.12 | 0.894 ± 0.044 | 0.905 ± 0.066
MCF7 BREAST | 0.786 ± 0.02 | 0.822 ± 0.023 | 0.8113 ± 0.0079 | 0.706 ± 0.0095 |  | 0.842 ± 0.015 | 0.751 ± 0.012 | 0.607 ± 0.015 | 0.843 ± 0.041 | 0.87 ± 0.035 | 0.848 ± 0.02 | 0.849 ± 0.028 | 0.874 ± 0.029 | 0.867 ± 0.045 | 0.849 ± 0.022 | 0.841 ± 0.06
SAOS2 BONE | 0.792 ± 0.052 | 0.691 ± 0.088 |  | 0.692 ± 0.073 | 0.985 ± 0.064 | 0.863 ± 0.093 | 0.301 ± 0.046 | 0.154 ± 0.0052 | 1.08 ± 0.042 | 1.06 ± 0.032 | 1.04 ± 0.073 | 1.02 ± 0.018 | 1.02 ± 0.039 | 0.986 ± 0.078 | 0.885 ± 0.031 | 0.908 ± 0.047
COLO320DM LARGE INTESTINE |  | 0.921 ± 0.045 | 0.957 ± 0.063 | 0.369 ± 0.055 | 0.929 ± 0.057 | 0.871 ± 0.075 | 0.324 ± 0.026 | 0.115 ± 0.011 | 0.544 ± 0.018 | 1.09 ± 0.032 | 0.98 ± 0.094 | 1.09 ± 0.094 | 0.747 ± 0.053 | 1.15 ± 0.029 | 1.11 ± 0.063 | 1.15 ± 0.043
HOSMNG BONE | 0.939 ± 0.1 |  | 0.969 ± 0.13 |  | 1.06 ± 0.12 | 0.999 ± 0.18 | 0.803 ± 0.072 | 0.44 ± 0.037 | 1 ± 0.092 | 0.992 ± 0.059 | 0.999 ± 0.082 | 1.01 ± 0.027 | 0.992 ± 0.12 | 1.02 ± 0.084 | 0.991 ± 0.1 | 1.06 ± 0.03
CASKI CERVIX | 0.757 ± 0.041 | 0.731 ± 0.072 | 0.792 ± 0.052 | 0.763 ± 0.064 | 0.891 ± 0.088 | 0.717 ± 0.039 | 0.166 ± 0.0025 | 0.0627 ± 0.004 | 0.931 ± 0.018 | 0.944 ± 0.038 | 0.95 ± 0.051 | 0.881 ± 0.032 | 0.766 ± 0.022 | 0.685 ± 0.045 | 0.474 ± 0.013 | 0.454 ± 0.02
HOS BONE | 0.921 ± 0.015 | 0.937 ± 0.025 | 0.8943 ± 0.0061 | 0.884 ± 0.021 | 0.954 ± 0.01 | 0.9297 ± 0.009 | 0.786 ± 0.017 | 0.471 ± 0.0095 | 0.996 ± 0.015 | 1.01 ± 0.025 | 0.997 ± 0.014 | 1.01 ± 0.033 | 0.9843 ± 0.006 | 0.998 ± 0.018 | 0.951 ± 0.02 | 0.9593 ± 0.0051
HS578T BREAST | 0.838 ± 0.15 | 0.824 ± 0.057 |  | 0.881 ± 0.049 |  |  | 0.871 ± 0.073 | 0.426 ± 0.054 | 0.899 ± 0.029 | 0.913 ± 0.041 | 0.917 ± 0.076 | 1.09 ± 0.08 | 1.05 ± 0.08 | 0.892 ± 0.042 | 0.944 ± 0.041 | 0.936 ± 0.041
HT1080 SOFT TISSUE | 0.9787 ± 0.0091 |  | 0.997 ± 0.021 | 0.97 ± 0.07 |  | 1.1 ± 0.031 | 0.766 ± 0.032 | 0.559 ± 0.032 | 1.009 ± 0.0071 | 1.016 ± 0.01 | 1.01 ± 0.028 | 1.03 ± 0.029 | 1.08 ± 0.025 | 1.04 ± 0.039 | 0.741 ± 0.0079 | 0.617 ± 0.036
SUM44 BREAST | 0.82 ± 0.065 | 0.877 ± 0.02 | 0.966 ± 0.061 | 0.915 ± 0.04 | 1.07 ± 0.076 | 1.11 ± 0.023 |  | 0.958 ± 0.013 | 0.951 ± 0.042 | 0.954 ± 0.062 | 1.04 ± 0.013 | 1.05 ± 0.032 | 1.07 ± 0.064 | 1.03 ± 0.043 | 1.02 ± 0.082 | 1.03 ± 0.047

From the supplement of paper PMC6045584
